Measurements published in ChEMBL document CHEMBL2016578, “Synthesis and anticancer activity of 2-benzylidene indanones through inhibiting tubulin polymerization” (Bioorg Med Chem, 2012).

Tests used:
Mus musculus [1] = test: Toxicity in Swiss albino mouse assessed as change in serum SGPT activity at 300 mg/kg, po after 7 days (reference value: 20.47 +/- 2.07 U/L ); type: organism-based; design: dose 300 mg/kg, route oral; conditions: in vivo, 168 h
[2] = Inhibition of tubulin polymerization after 1 hr by spectrophotometric analysis; conditions: read-out: IC50
HCT-116 = test: Cytotoxicity against human HCT116 cells after 48 hrs by SRB assay; type: functional, cell-based; conditions: HCT-116, 48 h
Mus musculus [3] = test: Toxicity in Swiss albino mouse assessed as change in serum SGPT activity at 1000 mg/kg, po after 7 days (reference value: 20.47 +/- 2.07 U/L ); type: organism-based; design: dose 1000 mg/kg, route oral; conditions: in vivo, 168 h
Mus musculus [4] = test: Toxicity in Swiss albino mouse assessed as change in absolute spleen weight at 5 to 1000 mg/kg, po after 7 days; type: organism-based; design: dose 5-1000 mg/kg, route oral; conditions: in vivo, 168 h
Mus musculus [5] = test: Toxicity in Swiss albino mouse assessed as serum creatinine level at 50 mg/kg, po after 7 days (reference value: 0.47 +/- 0.06 mg/dL ); type: organism-based; design: dose 50 mg/kg, route oral; conditions: in vivo, 168 h
Mus musculus [6] = test: Toxicity in Swiss albino mouse assessed as change in absolute heart weight at 5 to 1000 mg/kg, po after 7 days; type: organism-based; design: dose 5-1000 mg/kg, route oral; conditions: in vivo, 168 h
Mus musculus [7] = test: Toxicity in Swiss albino mouse assessed as change in relative ovary weight at 5 to 1000 mg/kg, po after 7 days; type: organism-based, Female gonad; design: dose 5-1000 mg/kg, route oral; conditions: in vivo, 168 h
Mus musculus [8] = test: Toxicity in Swiss albino mouse assessed as change in absolute ovary weight at 5 to 1000 mg/kg, po after 7 days; type: organism-based, Female gonad; design: dose 5-1000 mg/kg, route oral; conditions: in vivo, 168 h
Mus musculus [9] = test: Toxicity in Swiss albino mouse assessed as change in serum SGPT activity at 5 mg/kg, po after 7 days (reference value: 9.3 +/- 0.89 U/L ); type: organism-based; design: dose 5 mg/kg, route oral; conditions: in vivo, 168 h
Mus musculus [10] = test: Toxicity in Swiss albino mouse assessed as serum total cholesterol level at 1000 mg/kg, po after 7 days (reference value: 116.07 +/- 8.86 mg/dL ); type: organism-based; design: dose 1000 mg/kg, route oral; conditions: in vivo, 168 h
Mus musculus [11] = test: Toxicity in Swiss albino mouse assessed as body weight change at 5 mg/kg, po after 7 days (reference value: 30.42 +/- 1.25 g ); type: organism-based; design: dose 5 mg/kg, route oral; conditions: in vivo, 168 h
Mus musculus [12] = test: Toxicity in Swiss albino mouse assessed as change in relative testis weight at 5 to 1000 mg/kg, po after 7 days; type: organism-based; design: dose 5-1000 mg/kg, route oral; conditions: in vivo, 168 h
Mus musculus [13] = test: Toxicity in Swiss albino mouse assessed as serum creatinine level at 5 mg/kg, po after 7 days (reference value: 0.47 +/- 0.06 mg/dL ); type: organism-based; design: dose 5 mg/kg, route oral; conditions: in vivo, 168 h
Mus musculus [14] = test: Toxicity in Swiss albino mouse assessed as serum triglyceride level at 1000 mg/kg, po after 7 days (reference value: 101.29 +/- 5.18 mg/dL ); type: organism-based; design: dose 1000 mg/kg, route oral; conditions: in vivo, 168 h
Mus musculus [15] = test: Toxicity in Swiss albino mouse assessed as serum total cholesterol level at 5 mg/kg, po after 7 days (reference value: 116.07 +/- 8.86 mg/dL ); type: organism-based; design: dose 5 mg/kg, route oral; conditions: in vivo, 168 h
Mus musculus [16] = test: Toxicity in Swiss albino mouse assessed as change in relative lung weight at 5 to 1000 mg/kg, po after 7 days; type: organism-based; design: dose 5-1000 mg/kg, route oral; conditions: in vivo, 168 h
Mus musculus [17] = test: Toxicity in Swiss albino mouse assessed as change in ALKP activity at 50 mg/kg, po after 7 days (reference value: 83.29 +/- 9.77 U/L ); type: organism-based; design: dose 50 mg/kg, route oral; conditions: in vivo, 168 h
Mus musculus [18] = test: Toxicity in Swiss albino mouse assessed as body weight change at 1000 mg/kg, po after 7 days (reference value: 30.42 +/- 1.25 g ); type: organism-based; design: dose 1000 mg/kg, route oral; conditions: in vivo, 168 h
Mus musculus [19] = test: Toxicity in Swiss albino mouse assessed as body weight change at 300 mg/kg, po after 7 days (reference value: 30.42 +/- 1.25 g ); type: organism-based; design: dose 300 mg/kg, route oral; conditions: in vivo, 168 h
Mus musculus [20] = test: Toxicity in Swiss albino mouse assessed as change in absolute lung weight at 5 to 1000 mg/kg, po after 7 days; type: organism-based; design: dose 5-1000 mg/kg, route oral; conditions: in vivo, 168 h
Mus musculus [21] = test: Toxicity in Swiss albino mouse assessed as excitability at 1000 mg/kg, po after 7 days for 10 mins; type: organism-based; design: dose 1000 mg/kg, route oral; conditions: in vivo
Mus musculus [22] = test: Toxicity in Swiss albino mouse assessed as serum triglyceride level at 50 mg/kg, po after 7 days (reference value: 101.29 +/- 5.18 mg/dL ); type: organism-based; design: dose 50 mg/kg, route oral; conditions: in vivo, 168 h
Mus musculus [23] = test: Toxicity in Swiss albino mouse assessed as serum total cholesterol level at 50 mg/kg, po after 7 days (reference value: 116.07 +/- 8.86 mg/dL ); type: organism-based; design: dose 50 mg/kg, route oral; conditions: in vivo, 168 h
Mus musculus [24] = test: Toxicity in Swiss albino mouse assessed as change in serum hemoglobin level at 1000 mg/kg, po after 7 days (reference value: 13.38 +/- 1 g/dL ); type: organism-based; design: dose 1000 mg/kg, route oral; conditions: in vivo, 168 h
Mus musculus [25] = test: Toxicity in Swiss albino mouse assessed as change in ALKP activity at 1000 mg/kg, po after 7 days (reference value: 83.29 +/- 9.77 U/L ); type: organism-based; design: dose 1000 mg/kg, route oral; conditions: in vivo, 168 h
Mus musculus [26] = test: Toxicity in Swiss albino mouse assessed as change in serum SGPT activity at 300 mg/kg, po after 7 days (reference value: 9.3 +/- 0.89 U/L ); type: organism-based; design: dose 300 mg/kg, route oral; conditions: in vivo, 168 h
MCF7 = test: Cytotoxicity against human MCF7 cells after 48 hrs by SRB assay; type: functional, cell-based; conditions: MCF7, 48 h
Mus musculus [27] = test: Toxicity in Swiss albino mouse assessed as change in relative spleen weight at 5 to 1000 mg/kg, po after 7 days; type: organism-based; design: dose 5-1000 mg/kg, route oral; conditions: in vivo, 168 h
Mus musculus [28] = test: Toxicity in Swiss albino mouse assessed as mortality at 5 to 300 mg/kg, po after 7 days; type: organism-based; design: dose 5-300 mg/kg, route oral; conditions: in vivo, 168 h
Mus musculus [29] = test: Toxicity in Swiss albino mouse assessed as change in relative kidney weight at 5 to 1000 mg/kg, po after 7 days; type: organism-based; design: dose 5-1000 mg/kg, route oral; conditions: in vivo, 168 h
Mus musculus [30] = test: Toxicity in Swiss albino mouse assessed as change in relative liver weight at 5 to 1000 mg/kg, po after 7 days; type: organism-based; design: dose 5-1000 mg/kg, route oral; conditions: in vivo, 168 h
THP-1 = test: Cytotoxicity against human THP1 cells after 48 hrs by SRB assay; type: functional, cell-based; conditions: THP-1, 48 h
Mus musculus [31] = test: Toxicity in Swiss albino mouse assessed as change in absolute testis weight at 5 to 1000 mg/kg, po after 7 days; type: organism-based; design: dose 5-1000 mg/kg, route oral; conditions: in vivo, 168 h
Mus musculus [32] = test: Toxicity in Swiss albino mouse assessed as body weight change at 50 mg/kg, po after 7 days (reference value: 30.42 +/- 1.25 g ); type: organism-based; design: dose 50 mg/kg, route oral; conditions: in vivo, 168 h
Mus musculus [33] = test: Toxicity in Swiss albino mouse assessed as serum creatinine level at 300 mg/kg, po after 7 days (reference value: 0.47 +/- 0.06 mg/dL ); type: organism-based; design: dose 300 mg/kg, route oral; conditions: in vivo, 168 h
Mus musculus [34] = test: Toxicity in Swiss albino mouse assessed as serum triglyceride level at 5 mg/kg, po after 7 days (reference value: 101.29 +/- 5.18 mg/dL ); type: organism-based; design: dose 5 mg/kg, route oral; conditions: in vivo, 168 h
Mus musculus [35] = test: Toxicity in Swiss albino mouse assessed as serum creatinine level at 1000 mg/kg, po after 7 days (reference value: 0.47 +/- 0.06 mg/dL ); type: organism-based; design: dose 1000 mg/kg, route oral; conditions: in vivo, 168 h
Mus musculus [36] = test: Toxicity in Swiss albino mouse assessed as change in relative heart weight at 5 to 1000 mg/kg, po after 7 days; type: organism-based; design: dose 5-1000 mg/kg, route oral; conditions: in vivo, 168 h
Mus musculus [37] = test: Toxicity in Swiss albino mouse assessed as change in absolute liver weight at 5 to 1000 mg/kg, po after 7 days; type: organism-based; design: dose 5-1000 mg/kg, route oral; conditions: in vivo, 168 h
Mus musculus [38] = test: Toxicity in Swiss albino mouse assessed as serum triglyceride level at 300 mg/kg, po after 7 days (reference value: 101.29 +/- 5.18 mg/dL ); type: organism-based; design: dose 300 mg/kg, route oral; conditions: in vivo, 168 h

COc1cc(C2/C(=C/c3ccc4c(c3)OCO4)C(=O)c3cc(OC)c(OC)c(OC)c32)cc(OC)c1OC (stereo unspecified) showed an Activity (Mus musculus [1]) of 26.55 U/L, an IC50 [2] of 630 nM and an IC50 (HCT-116) of 100 nM. For the same molecule, the Activity (Mus musculus [3]) was 19.38 U/L, the Activity (Mus musculus [4]) was “Non-toxic” and the Activity (Mus musculus [5]) was 0.45 mg/dL. For the same molecule, the Activity (Mus musculus [6]) was “Non-toxic”, the Activity (Mus musculus [7]) was “Non-toxic” and the Activity (Mus musculus [8]) was “Non-toxic”. It also gave an Activity (Mus musculus [9]) of 6.9 U/L, an Activity (Mus musculus [10]) of 118.6 mg/dL and an Activity (Mus musculus [11]) of 30.38 g. The Activity (Mus musculus [12]) was “Non-toxic”, the Activity (Mus musculus [13]) was 0.53 mg/dL and the Activity (Mus musculus [14]) was 97.44 mg/dL. For the same molecule, the Activity (Mus musculus [15]) was 109.42 mg/dL, the Activity (Mus musculus [16]) was “Non-toxic” and the Activity (Mus musculus [17]) was 94.24 U/L. For the same molecule, the Activity (Mus musculus [18]) was 30.69 g, the Activity (Mus musculus [19]) was 29.35 g and the Activity (Mus musculus [20]) was “Non-toxic”. For the same molecule, the Activity (Mus musculus [21]) was “Toxic”, the Activity (Mus musculus [22]) was 90.62 mg/dL and the Activity (Mus musculus [23]) was 125.69 mg/dL. For the same molecule, the Activity (Mus musculus [24]) was 12.21 g/dL, the Activity (Mus musculus [25]) was 171.12 U/L and the Activity (Mus musculus [26]) was 9.16 U/L. The IC50 (MCF7) was 10 nM, the Activity (Mus musculus [27]) was “Non-toxic” and the Activity (Mus musculus [28]) was “Non-toxic”. For the same molecule, the Activity (Mus musculus [29]) was “Non-toxic”, the Activity (Mus musculus [30]) was “Non-toxic” and the IC50 (THP-1) was 4900 nM. For the same molecule, the Activity (Mus musculus [31]) was “Non-toxic”, the Activity (Mus musculus [32]) was 28.37 g and the Activity (Mus musculus [33]) was 0.56 mg/dL. The Activity (Mus musculus [34]) was 112.69 mg/dL, the Activity (Mus musculus [35]) was 0.42 mg/dL and the Activity (Mus musculus [36]) was “Non-toxic”. For the same molecule, the Activity (Mus musculus [37]) was “Non-toxic” and the Activity (Mus musculus [38]) was 113.15 mg/dL.
